ChEMBL document CHEMBL1137194, “Possible differences in modes of agonist and antagonist binding at human 5-HT6 receptors” (Bioorg Med Chem Lett, 2004)

Molecular target: 5-hydroxytryptamine receptor 6 (Homo sapiens, UniProt P50406)
Assay: Binding affinity against 5-hydroxytryptamine 6 receptor

Sequence of 5-hydroxytryptamine receptor 6 (P50406 whole entry): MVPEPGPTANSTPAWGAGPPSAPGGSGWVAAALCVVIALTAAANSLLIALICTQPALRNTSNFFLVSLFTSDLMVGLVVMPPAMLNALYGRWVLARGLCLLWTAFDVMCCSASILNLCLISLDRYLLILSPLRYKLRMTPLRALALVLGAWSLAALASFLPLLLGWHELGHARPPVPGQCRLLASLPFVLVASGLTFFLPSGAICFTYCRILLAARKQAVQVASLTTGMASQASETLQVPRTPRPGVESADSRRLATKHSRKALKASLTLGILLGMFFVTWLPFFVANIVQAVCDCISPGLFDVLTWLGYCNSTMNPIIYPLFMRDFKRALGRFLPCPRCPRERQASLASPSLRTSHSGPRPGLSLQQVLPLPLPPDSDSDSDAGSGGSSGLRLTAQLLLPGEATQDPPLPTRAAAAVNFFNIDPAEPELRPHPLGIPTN

SMILES	Ki [nM]
CN(C)CCn1ccc2ccccc21	> 5000
CCN(CC)CCc1cn(S(=O)(=O)c2ccccc2)c2ccc(OC)cc12	6
CCCc1c(CCN(C)C)c2cc(OC)ccc2n1S(=O)(=O)c1ccccc1	2.3
CN(C)CCC1=CC(Cc2ccccc2)c2ccccc21 (centres undefined)	3
CN(C)CCN1CCc2ccccc21	> 5000
CN(C)CC[N+]1=CCc2ccccc21	1900
COc1ccc2c(c1)c(CCN(C)C)cn2S(=O)(=O)c1ccc(N)cc1	0.6
CN(C)CCc1cn(Cc2ccccc2)c2ccccc12	6
COc1ccc2c(c1)c(CCN(C)C)cn2S(=O)(=O)c1ccccc1	2
